{"source": "patent US20050287666A1", "about": "“Cell culture medium comprising transition metals or trace elements” (priority 2004, published 2005)", "type_in_all_cases": "cell-based, human", "key": {"PER.C6 cells [1]": {"test_system": "PER.C6 cells", "assay": "PER.C6 growth in AEM supplemented with TEM, TEM without zinc or zinc alone (Example 1 and preliminary work)", "conditions": "zinc evaluated separately", "description": "A trace element mix (TEM) was created and used in various test protocols. […] The following media supplements were compared: • 1) TEM. • 2) TEM without zinc. • 3) Zinc alone at the TEM concentration. • 4) These supplements were each added to individual bottles of AEM at 1×, 3×, 5× and 10×. The conditions were then monitored by observing PER.C6 growth. […] Two of the components in TEM, Cu and Ni would individual be toxic at the 10× levels. These levels of trace elements would have been observed in the preliminary variable observations. Thus it was decided that total trace element concentrations were not responsible for the deleterious effects observed."}, "PER.C6 cells [2]": {"test_system": "PER.C6 cells", "assay": "Lag in the subsequent culture when PER.C6 cells are passaged from overgrown high-density cultures in AEM", "conditions": "for high density culturing / passaging of cells from high-density cultures: PER.C6 cells in AEM, cultures above 2×10^6 vc/mL"}, "PER.C6 cells [3]": {"test_system": "PER.C6 cells", "assay": "PER.C6 cell growth after adding cobalt, nickel and manganese to AEM supplemented with TEM-2 (Example 5, FIG. 04)"}, "PER.C6 cells [4]": {"test_system": "PER.C6 cells", "assay": "PER.C6 cell growth in AEM with single trace elements added at low concentration (Example 2, FIG. 01)", "conditions": "for effect on PER.C6 cell growth: element added singly to AEM: nickel (nitrate) 0.004 mg/L, cobalt (chloride) 0.001 mg/L, manganese (chloride) 0.028 mg/L, copper (chloride) 0.013 mg/L, compared to control"}}, "note": "Entries after “also recorded” stand apart in the source; their conditions may differ. Where two headings read alike, the source gives them in different places.", "data": [{"compound": "[Zn]", "note": "[Zinc]", "values": [{"measurement": "overall cell growth", "setting": "PER.C6 cells [1]", "result": "improve overall cell growth"}, {"measurement": "high density culturing / passaging of cells from high-density cultures", "setting": "PER.C6 cells [2]", "result": "consistent high density culturing"}, {"measurement": "lag in the subsequent culture", "setting": "PER.C6 cells [2]; passaged from overgrown day 5 cultures, AEM", "result": "did not lag"}]}, {"compound": "[Cl][Co][Cl]", "note": "[cobalt, cobalt (chloride)]", "values": [{"measurement": "effect on PER.C6 cell growth performance", "setting": "PER.C6 cells [3]", "result": "no effect"}]}, {"compound": "[Cl][Cu][Cl]", "note": "[copper, copper (chloride)]", "values": [{"measurement": "duration of log growth phase", "setting": "PER.C6 cells [4]; 0.013 mg/L copper in AEM, all other cultures entered lag phase after day four or five", "result": "continued in the log growth phase through day six"}, {"measurement": "effect on PER.C6 cell growth", "setting": "PER.C6 cells [4]", "result": "best results of all conditions tested; also recorded: extends log phase growth"}, {"measurement": "effect on PER.C6 cell growth", "setting": "PER.C6 cells [4]; listed as Copper", "result": "increase growth"}, {"measurement": "high density culturing / passaging of cells from high-density cultures", "setting": "PER.C6 cells [2]", "result": "does not improve passaging"}]}, {"compound": "[Cl][Mn][Cl]", "note": "[manganese, manganese (chloride)]", "values": [{"measurement": "effect on PER.C6 cell growth", "setting": "PER.C6 cells [4]", "result": "inhibits; also recorded: individually toxic"}, {"measurement": "effect on PER.C6 cell growth performance", "setting": "PER.C6 cells [3]; added to AEM supplemented with TEM-2, same concentrations as in example 2", "result": "no effect"}]}]}
